Laboratory results from PMC12396559 (Virus Research, 2025).

What was measured:
[1] = system: MPXV^SPL2A7 (Clade IIb); experiment: microbe, parasite or virus in culture; assay type: cell-based; settings: Monkeypox virus, Vero C1008, 120 h, read-out: EC50 against MPXV^SPL2A7
[2] = in vitro; settings: human
[3] = in vitro; settings: human; remark: listed apart in the source
[4] = system: MPXV^Zr-599 (Clade I); experiment: microbe, parasite or virus in culture; assay type: cell-based; settings: Monkeypox virus, Vero C1008, 120 h, read-out: EC50 against MPXV^Zr-599
[5] = system: VeroE6 cells
[6] = system: VeroE6 cells; remark: listed apart in the source
[7] = system: MPXV^Liberia (Clade IIa); experiment: microbe, parasite or virus in culture; assay type: cell-based; settings: Monkeypox virus, Vero C1008, 120 h, read-out: EC50 against MPXV^Liberia
[8] = system: Huh7 cells; settings: for concentration at which the agent showed cytotoxicity, reducing the number of cells: human
[9] = system: HeLa cells; settings: for concentration at which the agent showed cytotoxicity, reducing the number of cells: human
[10] = in vitro; settings: African green monkey
[11] = system: clade I mpox; settings: human, in vivo; cited from earlier work
[12] = system: clade II mpox; settings: human, in vivo; cited from earlier work
[13] = system: MPXV^SPL2A7

## Nc1ccn(C[C@@H](CO)OCP(=O)(O)O)c(=O)n1 [Cidofovir, cidofovir]
[1]
  EC50: 12.2 ± 1.19 µM
[2]
  CC50: > 100 µM
[3]
  CC50: > 100 µM
[4]
  EC50: 17.3 ± 5.03 µM
[5]
  protein production (F-actin quantification), in words: virtually totally blocked
[6]
  cell number on day 5 subtracted with cell number on Day 0: below zero
[7]
  EC50: 15.2 ± 3.02 µM
[8]
  concentration at which the agent showed cytotoxicity, reducing the number of cells: 100 µM
[9]
  concentration at which the agent showed cytotoxicity, reducing the number of cells: 100 µM

## O=c1[nH]c(=O)n([C@H]2C[C@H](O)[C@@H](CO)O2)cc1C(F)(F)F [Trifluridine, trifluridine]
[1]
  EC50: 6.17 ± 1.26 µM
[4]
  EC50: 3.71 ± 1.45 µM
[7]
  EC50: 3.48 ± 1.82 µM

## O=C(NN1C(=O)[C@@H]2[C@@H]3C=C[C@@H]([C@H]4C[C@@H]34)[C@@H]2C1=O)c1ccc(C(F)(F)F)cc1 [Tecovirimat, tecovirimat]
[1]
  EC50: 0.001 ± 0.002 µM
[2]
  CC50: > 100 µM
[3]
  CC50: > 100 µM
[4]
  EC50: 0.005 ± 0.001 µM
[5]
  suppression of protein production (F-actin quantification): about 50%
[7]
  EC50: 0.004 ± 0.002 µM
[10]
  CC50: > 100 µM
[11]
  duration of mpox lesions: failed to shorten the duration of mpox lesions
[8]
  cytostaticity and/or cytotoxicity (in words): without cytostaticity and/or cytotoxicity
[12]
  clinical efficacy: no significant efficacy
[13]
  concentration at which production of virally-encoded proteins was blocked (and above): ≥ 0.01 µM
  number of the cells (nuclei stained with DAPI): no significant reduction
[9]
  cytostaticity and/or cytotoxicity (in words): without cytostaticity and/or cytotoxicity

## Nc1ccn([C@@H]2O[C@H](CO)[C@@H](O)C2(F)F)c(=O)n1 [Gemcitabine, gemcitabine]
[1]
  EC50: 0.02 ± 0.02 µM
[4]
  EC50: 0.02 ± 0.02 µM
[5]
  amount of F-actin (images): greatly reduced
  protein production (F-actin quantification), in words: totally blocked
[6]
  number of cells (DAPI): significant reduction
[7]
  EC50: 0.01 ± 0.01 µM

## CCCCCCCCCCCCCCCCOCCCOP(=O)(O)CO[C@H](CO)Cn1ccc(N)nc1=O [Brincidofovir, brincidofovir]
[1]
  EC50: 2.03 ± 0.32 µM
[4]
  EC50: 2.13 ± 0.95 µM
[5]
  amount of F-actin (images): markedly reduced
  protein production (F-actin quantification), in words: virtually totally blocked
[6]
  cell number on day 5 subtracted with cell number on Day 0: below zero
[7]
  EC50: 2.01 ± 0.85 µM
[8]
  concentration at which the agent showed cytotoxicity, reducing the number of cells: 10 to 100 µM
[9]
  concentration at which the agent showed cytotoxicity, reducing the number of cells: 10 to 100 µM
